According to PubChem BioAssay AID330 (DTP/NCI, 2004):
Several values for one entry are separate records, joined by “and”; a condition that tells them apart may be missing. Identical values can stand only once. Toxic doses and inconclusive results are not listed. Rule for the calls: active = survival T/C of 150% or more; inactive = T/C below 125% in these data. Peptide text beside a SMILES is read from it. * marks the point of attachment. Trt = c1ccc(C(c2ccccc2)(c2ccccc2)*)cc1; Cbz = O=C(OCc1ccccc1)*; OtBu = CC(C)(C)O*

Tested on: P388 leukemia ip, CD2F1 mice, survival T/C
Assay: NCI In Vivo Anticancer Drug Screen. Data for tumor model P388 Leukemia (intraperitoneal) in CD2F1 (CDF1) mice
Details: endpoint: median survival time, higher = longer survival
Experimental: The antitumor activity of compounds was measured in mice bearing transplantable tumors. Survival or tumor size were measured and the results are expressed as the measurement made in the treated group (T) divided by the measurement made in the vehicle treated control group (C). The tumor model used in this assay is P388 Leukemia (intraperitoneal) in CD2F1 (CDF1) mice

[1] = dose: 12.5 mg/kg/injection, schedule: Q01DX005 (ip), vehicle: Klucel (hydroxypropylcellulose) (HPC)
[2] = dose: 25.0 mg/kg/injection, schedule: Q01DX005 (ip), vehicle: Klucel (hydroxypropylcellulose) (HPC)
[3] = dose: 50.0 mg/kg/injection, schedule: Q01DX009 (ip), vehicle: saline with Tween-80
[4] = dose: 100.0 mg/kg/injection, schedule: Q01DX009 (ip), vehicle: saline with Tween-80
[5] = dose: 200.0 mg/kg/injection, schedule: Q01DX009 (ip), vehicle: saline with Tween-80
[6] = dose: 6.25 mg/kg/injection, schedule: Q01DX005 (ip), vehicle: saline with Tween-80
[7] = dose: 60.0 mg/kg/injection, schedule: Q01DX005 (ip), vehicle: saline with Tween-80
[8] = dose: 50.0 mg/kg/injection, schedule: Q01DX009 (ip), vehicle: saline
[9] = dose: 100.0 mg/kg/injection, schedule: Q01DX009 (ip), vehicle: saline
[10] = dose: 200.0 mg/kg/injection, schedule: Q01DX009 (ip), vehicle: saline
[11] = dose: 120.0 mg/kg/injection, schedule: Q01DX005 (ip), vehicle: saline with Tween-80
[12] = dose: 240.0 mg/kg/injection, schedule: Q01DX005 (ip), vehicle: saline with Tween-80
[13] = dose: 50.0 mg/kg/injection, schedule: Q01DX005 (ip), vehicle: saline with Tween-80
[14] = dose: 100.0 mg/kg/injection, schedule: Q01DX005 (ip), vehicle: saline with Tween-80
[15] = dose: 200.0 mg/kg/injection, schedule: Q01DX005 (ip), vehicle: saline with Tween-80

Measured: T/C

C=C(C)C(=NC(C)(C)C)Nc1ccc(Cl)cc1
inactive: [1] 104 % of control and 106 % of control | [2] 106 % of control and 109 % of control | dose: 25.0 mg/kg/injection, schedule: Q01DX009 (ip), vehicle: saline with Tween-80 98 % of control and 100 % of control | dose: 50.0 mg/kg/injection, schedule: Q01DX005 (ip), vehicle: Klucel (hydroxypropylcellulose) (HPC) 110 % of control and 116 % of control and 123 % of control | [3] 100 % of control and 102 % of control and 109 % of control | dose: 100.0 mg/kg/injection, schedule: Q01DX005 (ip), vehicle: Klucel (hydroxypropylcellulose) (HPC) 112 % of control and 116 % of control and 120 % of control | [4] 109 % of control and 111 % of control and 119 % of control | [5] 118 % of control

O=C(NC1CCCCC1)Oc1ccccc1-c1ccccc1
inactive: dose: 100.0 mg/kg/injection, schedule: Q01DX001 (ip), vehicle: saline with Tween-80 100 % of control | dose: 200.0 mg/kg/injection, schedule: Q01DX001 (ip), vehicle: saline with Tween-80 100 % of control | dose: 400.0 mg/kg/injection, schedule: Q01DX001 (ip), vehicle: saline with Tween-80 100 % of control

CC(=O)Oc1ccccc1
inactive: dose: 50.0 mg/kg/injection, schedule: Q04DX003 (ip), vehicle: saline with Tween-80 103 % of control | dose: 100.0 mg/kg/injection, schedule: Q04DX003 (ip), vehicle: saline with Tween-80 100 % of control

Cn1c(Cl)c(/C=N\Nc2ccc([N+](=O)[O-])cc2)c2ccccc21
inactive: dose: 50.0 mg/kg/injection, schedule: Q01DX001 (ip), vehicle: Klucel (hydroxypropylcellulose) (HPC) 89 % of control | dose: 100.0 mg/kg/injection, schedule: Q01DX001 (ip), vehicle: Klucel (hydroxypropylcellulose) (HPC) 89 % of control | dose: 200.0 mg/kg/injection, schedule: Q01DX001 (ip), vehicle: Klucel (hydroxypropylcellulose) (HPC) 100 % of control

O=S1(=O)CCN(CCCCc2ccccc2)CC1
inactive: dose: 50.0 mg/kg/injection, schedule: Q01DX009 (ip), vehicle: Klucel (hydroxypropylcellulose) (HPC) 94 % of control | dose: 100.0 mg/kg/injection, schedule: Q01DX009 (ip), vehicle: Klucel (hydroxypropylcellulose) (HPC) 101 % of control | dose: 200.0 mg/kg/injection, schedule: Q01DX009 (ip), vehicle: Klucel (hydroxypropylcellulose) (HPC) 101 % of control

O=C(CCl)Nc1ccc(Cl)cc1C(=O)c1ccccc1
inactive: [3] 107 % of control | [4] 98 % of control | [5] 104 % of control

FC(F)(F)c1ccccc1NC(=S)SCc1ccccc1
inactive: dose: 50.0 mg/kg/injection, schedule: Q01DX009 (ip), vehicle: suspension in saline 91 % of control | dose: 100.0 mg/kg/injection, schedule: Q01DX009 (ip), vehicle: suspension in saline 90 % of control | dose: 200.0 mg/kg/injection, schedule: Q01DX009 (ip), vehicle: suspension in saline 90 % of control

CCOc1cc(CC[N+](C)(C)C)cc2c1ccc1ccc(OC)c(OC)c12
inactive: [6] 99 % of control | dose: 12.5 mg/kg/injection, schedule: Q01DX005 (ip), vehicle: saline with Tween-80 100 % of control | dose: 25.0 mg/kg/injection, schedule: Q01DX005 (ip), vehicle: saline with Tween-80 96 % of control

CCCCCCCCC1(OCCCS(=O)(=O)O)COc2ccccc2OCCOCCOc2ccccc2OC1
inactive: dose: 30.0 mg/kg/injection, schedule: Q01DX005 (ip), vehicle: saline with Tween-80 96 % of control | [7] 94 % of control

CN(C)CCOc1ccc2c(c1)CCC2=O
inactive: [8] 108 % of control | [9] 118 % of control | [10] 108 % of control

CCOC(=O)Nc1cc(=O)c([N+](=O)[O-])c(N)[nH]1
inactive: dose: 60.0 mg/kg/injection, schedule: Q01DX005 (ip), vehicle: saline + Tween-80 + alcohol 99 % of control | dose: 120.0 mg/kg/injection, schedule: Q01DX005 (ip), vehicle: saline + Tween-80 + alcohol 101 % of control | dose: 240.0 mg/kg/injection, schedule: Q01DX005 (ip), vehicle: saline + Tween-80 + alcohol 100 % of control

COC(=O)C(=O)C(C#N)c1ccc(OC)c(OC)c1 (stereo not drawn)
inactive: [7] 99 % of control | [11] 104 % of control | [12] 95 % of control

CC(C)CC(NC(=O)C(CSC(c1ccccc1)(c1ccccc1)c1ccccc1)NC(=O)OCc1ccccc1)C(=O)NC(C(=O)OC(C)(C)C)C(C)C (stereo not drawn) (Cbz-Cys(Trt)-Leu-Val-OtBu; configuration not given here)
inactive: dose: 60.0 mg/kg/injection, schedule: Q01DX005 (ip), vehicle: Klucel (hydroxypropylcellulose) (HPC) 96 % of control | dose: 120.0 mg/kg/injection, schedule: Q01DX005 (ip), vehicle: Klucel (hydroxypropylcellulose) (HPC) 100 % of control | dose: 240.0 mg/kg/injection, schedule: Q01DX005 (ip), vehicle: Klucel (hydroxypropylcellulose) (HPC) 107 % of control

CCCCCCCCCC(O)C(O)C1CCC(C2CCC(C(O)CCCCCCCCCCCCC3=CC(C)OC3=O)O2)O1 (stereo not drawn)
inactive: dose: 0.35 mg/kg/injection, schedule: Q01DX005 (ip), vehicle: Klucel (hydroxypropylcellulose) (HPC) 103 % of control and 97 % of control | dose: 0.7 mg/kg/injection, schedule: Q01DX005 (ip), vehicle: Klucel (hydroxypropylcellulose) (HPC) 100 % of control and 99 % of control | dose: 1.4 mg/kg/injection, schedule: Q01DX005 (ip), vehicle: Klucel (hydroxypropylcellulose) (HPC) 112 % of control and 100 % of control | dose: 2.8 mg/kg/injection, schedule: Q01DX005 (ip), vehicle: Klucel (hydroxypropylcellulose) (HPC) 106 % of control and 113 % of control

COc1cc(NCCCN=C(N)N)c2ncccc2c1
inactive: dose: 1.56 mg/kg/injection, schedule: Q01DX005 (ip), vehicle: saline with Tween-80 99 % of control | dose: 3.13 mg/kg/injection, schedule: Q01DX005 (ip), vehicle: saline with Tween-80 98 % of control | [6] 102 % of control and 92 % of control

COC1(C)C(=O)N(C)C1c1ccccc1 (stereo not drawn)
inactive: [7] 100 % of control | [11] 97 % of control | [12] 100 % of control

O=C(NC(Cc1ccccc1)C(=O)O)OCc1ccccc1 (stereo not drawn) (tested in a mixture with another compound)
inactive: dose: 6.25 mg/kg/injection, schedule: Q01DX005 (ip), vehicle: Klucel (hydroxypropylcellulose) (HPC) 109 % of control | [1] 106 % of control | [2] 94 % of control

CN(C)CCN1CC2Cc3ccccc3C1c1ccccc12 (stereo not drawn)
inactive: dose: 100.0 mg/kg/injection, schedule: Q04DX003 (ip), vehicle: Klucel (hydroxypropylcellulose) (HPC) 102 % of control | dose: 200.0 mg/kg/injection, schedule: Q04DX003 (ip), vehicle: Klucel (hydroxypropylcellulose) (HPC) 102 % of control

O=C1NC(=O)C2=C1CCCC2Br (stereo not drawn)
inactive: dose: 3.13 mg/kg/injection, schedule: Q01DX009 (ip), vehicle: distilled water + Tween-80 99 % of control | dose: 6.25 mg/kg/injection, schedule: Q01DX009 (ip), vehicle: distilled water + Tween-80 92 % of control | dose: 12.5 mg/kg/injection, schedule: Q01DX009 (ip), vehicle: distilled water + Tween-80 117 % of control

N#C/C(=C1/OC(=N)C(c2c(Cl)cccc2Cl)C1=O)c1c(Cl)cccc1Cl (stereo not drawn)
inactive: [13] 100 % of control | [14] 101 % of control

C/C=C1/CN2CCC34c5ccccc5N(C)C23C(O)CC1C4(CO)C(=O)OC (stereo not drawn)
inactive: dose: 13.75 mg/kg/injection, schedule: Q01DX005 (ip), vehicle: saline + Tween-80 + alcohol 106 % of control | dose: 27.5 mg/kg/injection, schedule: Q01DX005 (ip), vehicle: saline + Tween-80 + alcohol 102 % of control | dose: 55.0 mg/kg/injection, schedule: Q01DX005 (ip), vehicle: saline + Tween-80 + alcohol 110 % of control | dose: 110.0 mg/kg/injection, schedule: Q01DX005 (ip), vehicle: saline + Tween-80 + alcohol 100 % of control

C[CH2][Sn][Cl]
inactive: dose: 6.25 mg/kg/injection, schedule: Q01DX009 (ip), vehicle: saline 98 % of control | dose: 12.5 mg/kg/injection, schedule: Q01DX009 (ip), vehicle: saline 98 % of control | dose: 25.0 mg/kg/injection, schedule: Q01DX009 (ip), vehicle: saline 91 % of control

CSC(C(OC(C)=O)C(OC(C)=O)C(OC(C)=O)C(COC(C)=O)OC(C)=O)n1cnc2c(=S)nc[nH]c21 (stereo not drawn)
inactive: [13] 101 % of control | [14] 92 % of control | [15] 89 % of control

CC1=NN(C(=O)CC(=O)Nc2ccc(C(=O)O)cc2)C(=O)C1N=Nc1ccc(S(N)(=O)=O)cc1 (stereo not drawn)
inactive: [13] 96 % of control | [14] 94 % of control | [15] 93 % of control

COc1cc2cnc(-c3ccccn3)c(O)c2cc1OC
inactive: [8] 100 % of control | [9] 90 % of control | [10] 94 % of control
